# Source: US10369166B2 (priority 2014, dated 2019)
# Where “and” joins values, the source holds several entries; their conditions need not be identical. Equal values may be shown once. Read-outs that look alike come from different tables or passages of the source.
# Key:
# Ebola virus = settings: in vivo
# [1] = in vivo; cited from earlier work
# COLLAGEN = settings: cited from earlier work
# [2] = in vivo
# (CAT B) CATHEPSIN B [3] = target: T1, (CAT B) CATHEPSIN B (Homo sapiens, UniProt P07858); format: biochemical
# (CAT B) CATHEPSIN B [4] = target: T1, (CAT B) CATHEPSIN B; settings: cited from earlier work
# [5] = mouse, in vivo; cited from earlier work
# Ebolavirus Sudan Gulu = format: cell-based
# TNF ALPHA = TNF ALPHA (Homo sapiens, UniProt P01375); settings: cited from earlier work
# [6] = in vivo, cited from earlier work
# S-ADENOSYL HO[…] (SAHH) = S-ADENOSYL HO[…] (SAHH) (Homo sapiens, UniProt P23526); settings: cited from earlier work
# [7] = system: G9a/GLP-mediated dimethylation of histone 3 on lysine 9; settings: cited from earlier work
# MCF7 cells = settings: cited from earlier work
# GLP = target: T2, GLP (Homo sapiens, UniProt Q9H9B1); settings: cited from earlier work
# T2 sequence (Q9H9B1 1-1298): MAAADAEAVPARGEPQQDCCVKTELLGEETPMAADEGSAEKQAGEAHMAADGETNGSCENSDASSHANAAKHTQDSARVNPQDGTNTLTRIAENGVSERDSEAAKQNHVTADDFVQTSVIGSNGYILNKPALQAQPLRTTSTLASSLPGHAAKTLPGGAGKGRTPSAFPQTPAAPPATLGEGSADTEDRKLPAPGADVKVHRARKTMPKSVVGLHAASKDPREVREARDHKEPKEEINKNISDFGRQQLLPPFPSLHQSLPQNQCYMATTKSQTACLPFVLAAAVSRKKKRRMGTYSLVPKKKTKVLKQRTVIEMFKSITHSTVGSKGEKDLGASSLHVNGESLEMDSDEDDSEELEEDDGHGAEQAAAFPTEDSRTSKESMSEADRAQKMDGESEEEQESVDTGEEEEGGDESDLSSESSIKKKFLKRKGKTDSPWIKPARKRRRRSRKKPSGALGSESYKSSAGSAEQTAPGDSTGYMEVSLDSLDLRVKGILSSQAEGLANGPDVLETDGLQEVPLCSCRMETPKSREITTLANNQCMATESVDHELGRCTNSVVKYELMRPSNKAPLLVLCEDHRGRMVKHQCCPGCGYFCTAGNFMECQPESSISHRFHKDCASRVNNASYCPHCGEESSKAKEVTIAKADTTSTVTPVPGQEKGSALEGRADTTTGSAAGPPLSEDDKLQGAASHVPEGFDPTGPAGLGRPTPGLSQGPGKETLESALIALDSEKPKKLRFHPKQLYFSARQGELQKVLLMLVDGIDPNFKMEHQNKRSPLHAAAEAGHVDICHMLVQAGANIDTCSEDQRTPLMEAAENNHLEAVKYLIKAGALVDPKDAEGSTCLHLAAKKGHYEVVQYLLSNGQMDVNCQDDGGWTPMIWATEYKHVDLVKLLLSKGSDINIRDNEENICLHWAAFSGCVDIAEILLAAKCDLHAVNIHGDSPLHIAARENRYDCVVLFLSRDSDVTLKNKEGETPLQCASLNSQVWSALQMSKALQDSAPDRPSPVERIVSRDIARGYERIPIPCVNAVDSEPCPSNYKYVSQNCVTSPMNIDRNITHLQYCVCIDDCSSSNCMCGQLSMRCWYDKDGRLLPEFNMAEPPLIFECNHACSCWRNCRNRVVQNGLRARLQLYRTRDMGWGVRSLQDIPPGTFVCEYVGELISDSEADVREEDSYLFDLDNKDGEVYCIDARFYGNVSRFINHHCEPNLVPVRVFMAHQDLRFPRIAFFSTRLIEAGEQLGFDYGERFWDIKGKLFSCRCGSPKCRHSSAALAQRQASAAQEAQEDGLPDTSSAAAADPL
# folate = settings: cited from earlier work
# TNF ALPHA, sequence (P01375 whole entry, species assumed): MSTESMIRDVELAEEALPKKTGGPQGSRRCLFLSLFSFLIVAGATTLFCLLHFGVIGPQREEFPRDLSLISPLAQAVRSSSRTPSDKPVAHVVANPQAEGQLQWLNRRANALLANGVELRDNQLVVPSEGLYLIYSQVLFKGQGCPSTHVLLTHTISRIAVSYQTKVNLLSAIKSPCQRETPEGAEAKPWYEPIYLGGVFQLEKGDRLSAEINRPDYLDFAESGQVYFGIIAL
# S-ADENOSYL HO[…] (SAHH), sequence (P23526 whole entry, species assumed): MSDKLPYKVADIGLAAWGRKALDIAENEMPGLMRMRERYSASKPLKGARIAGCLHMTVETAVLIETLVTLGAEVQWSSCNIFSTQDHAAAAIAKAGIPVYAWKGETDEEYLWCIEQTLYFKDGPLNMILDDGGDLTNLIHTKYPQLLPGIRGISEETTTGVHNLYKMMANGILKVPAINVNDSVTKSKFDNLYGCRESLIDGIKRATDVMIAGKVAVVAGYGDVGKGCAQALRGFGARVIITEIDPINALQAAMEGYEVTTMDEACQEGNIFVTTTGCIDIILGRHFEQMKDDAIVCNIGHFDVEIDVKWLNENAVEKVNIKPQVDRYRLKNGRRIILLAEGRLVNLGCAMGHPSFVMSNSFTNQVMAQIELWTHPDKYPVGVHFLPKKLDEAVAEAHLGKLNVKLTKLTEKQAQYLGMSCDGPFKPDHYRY
compound,measurement,setting,value
Nc1nccc2c1ncn2[C@@H]1C=C(CO)[C@@H](O)[C@H]1O [3-DEAZANEPLANOCIN A],Residual estimated viral load,Ebola virus,10^5 pfu/ml and 10^7 pfu/ml and 10^8 pfu/ml
Nc1ncnc2c1ncn2[C@@H]1O[C@H](COP(=O)(O)O)[C@@H](O)[C@H]1O [ADENOSINE MONOPHOSPHATE],LD50,[1],2900 mg/kg
N=C(N)NCCC[C@H](N)C(=O)O [Arginine],ED50,COLLAGEN,2.5 g
COc1ccc2cc3[n+](cc2c1OC)CCc1cc2c(cc1-3)OCO2 [BERBERINE],residual viral load after the product (sequential),Ebola virus,235 pfu/ml
same,LD50,[2],2072 g
same,ED50,(CAT B) CATHEPSIN B [3],0.185 g/day
same,IC50,(CAT B) CATHEPSIN B [4],550 µM
same,Oral LD50,[5],"(mouse): >29,586 mg/kg"
CC1(C)CC[C@]2(C(=O)O)CC[C@]3(C)C(=CC[C@@H]4[C@@]5(C)CC[C@H](O)C(C)(C)[C@@H]5CC[C@]43C)[C@@H]2C1 [BETA-OLEANOLIC ACID],residual viral load after the product (sequential),Ebola virus,1875 pfu/ml
same,ED50,(CAT B) CATHEPSIN B [3],0.004 g
same,IC50,(CAT B) CATHEPSIN B [4],9 µM
C[C@H]1[C@H](C)CC[C@]2(C(=O)O)CC[C@]3(C)C(=CC[C@@H]4[C@@]5(C)CC[C@H](O)C(C)(C)[C@@H]5CC[C@]43C)[C@H]12 [BETA-URSOLIC ACID],residual viral load after the product (sequential),Ebola virus,12500 pfu/ml
same,IC50,(CAT B) CATHEPSIN B [4],10 µM
"Nc1nccc2c1ncn2[C@@H]1O[C@H](CO)[C@@H](O)[C@H]1O [CA-C3-ADO, 3-deaza-adenosine]",Molarity at last dilution,Ebolavirus Sudan Gulu,200 µM
COc1cc(/C=C/C(=O)CC(=O)/C=C/c2ccc(O)c(OC)c2)ccc1O [CURCUMIN],ED50,TNF ALPHA,29 to 60 mg/kg
same,residual viral load after the product (sequential),Ebola virus,25000 pfu/ml
CC(C)N(CCCNC(=O)Nc1ccc(C(C)(C)C)cc1)C[C@H]1O[C@@H](n2ccc3c(N)ncnc32)[C@H](O)[C@@H]1O [EPZ004777],Rat LD50,[6],590 mg/kg
CC(C)N(C[C@H]1O[C@@H](n2cnc3c(N)ncnc32)[C@H](O)[C@@H]1O)C1CC(CCc2nc3ccc(C(C)(C)C)cc3[nH]2)C1 (stereo partly drawn) [EPZ-5676],Molarity at last dilution,Ebolavirus Sudan Gulu,0.4 µM
N[C@@H](CCS)C(=O)O [HOMOCYSTEINE],ED50,E[…],0.4725 g
OC[C@H]1O[C@@H](n2cnc3c(O)ncnc32)[C@H](O)[C@@H]1O [INOSINE],ED50,S-ADENOSYL HO[…] (SAHH),29 to 60 mg/kg
O=c1c(O)c(-c2ccc(O)cc2)oc2cc(O)cc(O)c12 [Kaemferol],LD50,[1],2170 mg/kg
COc1c(C)c2c(c(O)c1C/C=C(\C)CCC(=O)O)C(=O)OC2 [Mycophenolic acid],Residual estimated viral load,Ebola virus,2 × 10^6 pfu/ml
CCCCN1C[C@H](O)[C@@H](O)[C@H](O)[C@H]1CO [N-B-DEOXYNOJIRIMYCIN],LD50,"[6]; rat, po","LD50 1,300 mg mg kg-1"
same,ED50,α-glucosidase,32.85 mg
same,Residual estimated viral load,Ebola virus,10^7 pfu/ml
NCCC[C@H](N)C(=O)O [Ornithine],ED50,COLLAGEN,3.5 g
O=c1c(O)c(-c2ccc(O)c(O)c2)oc2cc(O)cc(O)c12 [QUERCETIN],Oral LD50,"[6]; rat, po",(rat): 161 mg/kg
same,residual viral load after the product (sequential),Ebola virus,469 pfu/ml
same,LD50,[2],11.27 g
same,ED50,(CAT B) CATHEPSIN B [3],0.03 g
same,IC50,(CAT B) CATHEPSIN B [4],11 µM
CC(C)N(CCCNC(=O)Nc1ccc(C(C)(C)C)cc1)C[C@H]1O[C@@H](n2cc(Br)c3c(N)ncnc32)[C@H](O)[C@@H]1O [SGC 0946],Rat LD50,[6],590 mg/kg
same,LD50,[2],41.3 g
COc1cc2c(NC3CCN(CC4CCCCC4)CC3)nc(N3CCCN(C(C)C)CC3)nc2cc1OCCCN1CCCCC1 [UNC0631],IC50,[7],4 nM
same,LD50,[1],2 mg/kg
COc1cc2c(NC3CCN(C4CCCCC4)CC3)nc(N3CCCN(C(C)C)CC3)nc2cc1OCCCN1CCCCC1 [UNC0646],EC50,MCF7 cells,4.7 µM
same,IC50,GLP,15 nM
[O]=[V]([O-])([O-])[O-] [VANADATE],residual viral load after the product (sequential),Ebola virus,212 pfu/ml
O=C1O[C@H]([C@@H](O)CO)C(O)=C1O [VITAMIN C],ED50,TNF ALPHA,29 to 60 mg/kg
same,residual viral load after the product (sequential),Ebola virus,50000 pfu/ml
same,LD50,[1],"11,900 mg/kg"
NC(=O)c1ncn([C@@H]2O[C@H](CO)[C@@H](O)[C@H]2O)n1 [ribovirin],Molarity at last dilution,Ebolavirus Sudan Gulu,25 µM
NC(CCSCCCCC(=O)O)C(=O)O (stereo not drawn) [s-carboxybutyl DL homocysteine],LD50,[1],500 mg/kg
epigallocatechin-3 gallate [EGCG],residual viral load after the product (sequential),Ebola virus,106 pfu/ml
same,IC50,folate,34.8 µM
